Experiment [1] deals with T1, Neuropeptide Y receptor type 2 (Homo sapiens, UniProt P49146).
T1 sequence (P49146 whole entry): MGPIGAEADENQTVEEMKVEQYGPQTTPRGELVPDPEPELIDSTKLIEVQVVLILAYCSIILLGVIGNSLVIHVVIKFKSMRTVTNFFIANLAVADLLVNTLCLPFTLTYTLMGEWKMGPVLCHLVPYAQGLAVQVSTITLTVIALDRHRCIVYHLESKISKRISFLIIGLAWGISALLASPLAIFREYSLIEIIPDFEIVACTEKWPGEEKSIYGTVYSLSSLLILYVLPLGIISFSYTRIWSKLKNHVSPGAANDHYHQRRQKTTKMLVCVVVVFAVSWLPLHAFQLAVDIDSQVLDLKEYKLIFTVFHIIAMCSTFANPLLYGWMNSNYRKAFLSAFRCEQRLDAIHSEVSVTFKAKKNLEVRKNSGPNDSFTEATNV
The experiment can be described thus: Affinity against Neuropeptide Y receptor Y2 in SK-N-BE2 cell line.

The target in experiment [2] is Neuropeptide Y receptor type 2 (Rattus norvegicus, UniProt Q9ERC0). The experiment can be described thus: Antisecretory potency, affinity for intestinal PYY of rat jejunum by using short circuit current (SCC) method. Type of experiment: tissue-based.
Sequence of Neuropeptide Y receptor type 2 (Rattus norvegicus, UniProt Q9ERC0) (Q9ERC0 whole entry): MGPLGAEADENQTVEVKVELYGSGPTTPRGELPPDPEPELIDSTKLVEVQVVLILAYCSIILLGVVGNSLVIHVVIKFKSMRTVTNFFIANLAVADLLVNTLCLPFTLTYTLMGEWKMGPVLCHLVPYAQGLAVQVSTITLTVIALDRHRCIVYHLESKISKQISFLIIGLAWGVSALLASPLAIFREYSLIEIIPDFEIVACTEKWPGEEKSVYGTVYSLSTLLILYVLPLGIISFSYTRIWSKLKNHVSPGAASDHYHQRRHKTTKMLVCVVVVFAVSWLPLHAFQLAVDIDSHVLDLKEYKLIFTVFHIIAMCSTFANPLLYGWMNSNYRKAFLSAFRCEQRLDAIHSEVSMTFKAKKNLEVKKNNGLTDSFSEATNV
Experiment [3] addresses Neuropeptide Y receptor type 1 (Homo sapiens, UniProt P25929). The experiment can be described thus: Affinity against Neuropeptide Y receptor Y1 in SK-N-MC cell line. Type of experiment: cell-based.

*1 amine or outer side, *2 acyl side, *3 side chain or, on linkers, in order; H or OH if unused. Where a SMILES comes first, the peptide text is derived from it. Side-chain parts run from the residue outwards. [ ]: non-standard residue; d: D form. The star is where a group is joined. X1 = C[C@@H](O)[C@@H](CN[C@@H](CCCN=C(N)N)C(=O)N[C@@H](CCC(N)=O)C(=O)N[C@@H](CCCN=C(N)N)C(=O)N[C@@H](Cc1ccc(O)cc1)C(N)=O)N*; X2 = N=C(N)NCCC[C@@H](CN[C@@H](CCC(N)=O)C(=O)N[C@@H](CCCNC(=N)N)C(=O)N[C@@H](Cc1ccc(O)cc1)C(N)=O)N*; Argψ(CH2NH)TyrNH2 = N=C(N)NCCC[C@@H](CN[C@@H](Cc1ccc(O)cc1)C(N)=O)N*; X3 = CC(C)C[C@@H](CN([C@@H](CCCNC(=N)N)C(=O)[*:2])[*:1])N[*:3]; Dip = N[C@H](C(=O)O)C(c1ccccc1)c1ccccc1; 1Nal = N[C@@H](Cc1cccc2ccccc12)C(=O)O; Tic = O=C(O)[C@@H]1Cc2ccccc2CN1; 3Thi = N[C@@H](Cc1ccsc1)C(=O)O

Sequence of Neuropeptide Y receptor type 1 (P25929 whole entry): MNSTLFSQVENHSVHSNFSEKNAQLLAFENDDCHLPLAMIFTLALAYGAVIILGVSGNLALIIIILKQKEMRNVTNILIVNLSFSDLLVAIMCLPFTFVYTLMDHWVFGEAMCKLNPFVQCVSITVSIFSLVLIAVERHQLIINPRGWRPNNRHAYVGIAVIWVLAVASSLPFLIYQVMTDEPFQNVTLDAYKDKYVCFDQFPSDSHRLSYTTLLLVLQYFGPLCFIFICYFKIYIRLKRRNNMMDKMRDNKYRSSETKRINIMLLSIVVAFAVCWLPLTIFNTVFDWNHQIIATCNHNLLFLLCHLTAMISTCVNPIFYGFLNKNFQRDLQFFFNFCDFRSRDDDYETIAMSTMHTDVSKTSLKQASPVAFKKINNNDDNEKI

What is called IC50 is the concentration that inhibits the measured activity by half. Read a high IC50 as weaker potency. Regarding `CC(=O)N[C@@H](C)C(=O)N[C@@H](CO)C(=O)N[C@@H](CC(C)C)C(=O)N[C@@H](CCCNC(=N)N)C(=O)N[C@@H](Cc1cnc[nH]1)C(=O)N[C@@H](Cc1ccc(O)cc1)C(=O)N[C@@H](CC(C)C)C(=O)N[C@@H](CC(N)=O)C(=O)N[C@@H](CC(C)C)C(=O)N[C@H](C(=O)N[C@H](C(=O)N[C@@H](CCCNC(=N)N)CN[C@@H](CCC(N)=O)C(=O)N[C@@H](CCCNC(=N)N)C(=O)N[C@@H](Cc1ccc(O)cc1)C(N)=O)[C@@H](C)O)C(C)C` (Ac-ASLRHYLNLVT-X2), the figures for the IC50 in experiment [1], in experiment [2] and in experiment [3] were over 10000 nM, over 100 nM and 1250 nM, respectively.
In the case of `CC(=O)N[C@@H](C)C(=O)N[C@@H](CO)C(=O)N[C@@H](CC(C)C)C(=O)N[C@@H](CCCNC(=N)N)C(=O)N[C@@H](Cc1cnc[nH]1)C(=O)N[C@@H](Cc1ccc(O)cc1)C(=O)N[C@@H](CC(C)C)C(=O)N[C@@H](CC(N)=O)C(=O)N[C@@H](CC(C)C)C(=O)N[C@H](C(=O)N[C@H](C(=O)N[C@@H](CCCNC(=N)N)C(=O)N[C@@H](CCC(N)=O)C(=O)N[C@@H](CCCNC(=N)N)C(=O)N[C@H](C(N)=O)C(c1ccccc1)c1ccccc1)[C@@H](C)O)C(C)C` (Ac-ASLRHYLNLVTRQR[Dip]-NH2), the IC50 in experiment [1] is over 10000 nM; in experiment [2], over 100 nM; in experiment [3], 1250 nM.
In the same order, the values of `CC(=O)N[C@@H](C)C(=O)N[C@@H](CO)C(=O)N[C@@H](CC(C)C)C(=O)N[C@@H](CCCNC(=N)N)C(=O)N[C@@H](Cc1cnc[nH]1)C(=O)N[C@@H](Cc1c[nH]c2ccccc12)C(=O)N[C@@H](CC(C)C)C(=O)N[C@@H](CC(N)=O)C(=O)N[C@@H](CC(C)C)C(=O)N[C@H](C(=O)N[C@H](C(=O)N[C@@H](CCCNC(=N)N)C(=O)N[C@@H](CCC(N)=O)C(=O)N[C@@H](CCCNC(=N)N)CN[C@@H](Cc1ccc(O)cc1)C(N)=O)[C@@H](C)O)C(C)C` (Ac-ASLRHWLNLVTRQ-{Argψ(CH2NH)TyrNH2}) are 1.05 nM, 1.12 nM and over 1000 nM.
Take Ac-ASLRHFLNLVTRQRY-NH2: the concentration for half-maximal inhibition (IC50) in experiment [1] came out at 1.83 nM; in experiment [2], 2.3 nM; in experiment [3], 764 nM.
As to `CC(=O)N[C@@H](C)C(=O)N[C@@H](CO)C(=O)N[C@@H](CC(C)C)C(=O)N[C@@H](CCCN=C(N)N)C(=O)N[C@@H](Cc1c[nH]cn1)C(=O)N[C@@H](Cc1ccc(O)cc1)C(=O)N[C@@H](CC(C)C)C(=O)N[C@@H](CC(N)=O)C(=O)N[C@@H](CC(C)C)C(=O)N[C@H](C(=O)N[C@H](CN[C@@H](CCCN=C(N)N)C(=O)N[C@@H](CCC(N)=O)C(=O)N[C@@H](CCCN=C(N)N)C(=O)N[C@@H](Cc1ccc(O)cc1)C(N)=O)[C@@H](C)O)C(C)C` (Ac-ASLRHYLNLV-X1), the figures for the IC50 in experiment [1], in experiment [2] and in experiment [3] were 52 nM, 5.03 nM and 1090 nM, respectively.
In the same order, the values of `CCCC[C@H](NC(=O)[C@H](CO)NC(=O)[C@H](C)NC(C)=O)C(=O)N[C@@H](CCCN=C(N)N)C(=O)N[C@@H](Cc1c[nH]cn1)C(=O)N[C@@H](Cc1ccc(O)cc1)C(=O)N[C@@H](CCCC)C(=O)N[C@@H](CC(N)=O)C(=O)N[C@@H](CCCC)C(=O)N[C@@H](CCC)C(=O)N[C@H](C(=O)N[C@@H](CCCN=C(N)N)C(=O)N[C@@H](CCC(N)=O)C(=O)N[C@@H](CCCN=C(N)N)C(=O)N[C@@H](Cc1ccc(O)cc1)C(N)=O)[C@@H](C)O` are 57 nM, 0.59 nM and 1590 nM.
In the same order, the values of `CCCC[C@H](NC(=O)[C@H](CO)NC(=O)[C@H](C)NC(C)=O)C(=O)N[C@@H](CCCNC(=N)N)C(=O)N[C@@H](Cc1cnc[nH]1)C(=O)N[C@@H](Cc1ccc(O)cc1)C(=O)N[C@@H](CCCC)C(=O)N[C@@H](CC(N)=O)C(=O)N[C@@H](Cc1c[nH]c2ccccc12)C(=O)N[C@@H](CCC)C(=O)N[C@H](C(=O)N[C@@H](CCCNC(=N)N)C(=O)N[C@@H](CCC(N)=O)C(=O)N[C@@H](CCCNC(=N)N)C(=O)N[C@@H](Cc1ccc(O)cc1)C(N)=O)[C@@H](C)O` are 3.73 nM, 0.56 nM and 183 nM.
Consider `CC(=O)N[C@@H](C)C(=O)N[C@@H](CO)C(=O)N[C@@H](CC(C)C)C(=O)N[C@@H](CCCN=C(N)N)C(=O)N[C@@H](Cc1c[nH]cn1)C(=O)N[C@@H](Cc1ccsc1)C(=O)N[C@@H](CC(C)C)C(=O)N[C@@H](CC(N)=O)C(=O)N[C@@H](CC(C)C)C(=O)N[C@H](C(=O)N[C@H](C(=O)N[C@@H](CCCN=C(N)N)C(=O)N[C@@H](CCC(N)=O)C(=O)N[C@@H](CCCN=C(N)N)C(=O)N[C@@H](Cc1ccc(O)cc1)C(N)=O)[C@@H](C)O)C(C)C` (Ac-ASLRH[3Thi]LNLVTRQRY-NH2), for which the IC50 in experiment [1] came out at 2.63 nM; in experiment [2], 1 nM; in experiment [3] (sk-n-mc), 257 nM.
On to `CC(=O)N[C@@H](C)C(=O)N[C@@H](CO)C(=O)N[C@@H](CC(C)C)C(=O)N[C@@H](CCCNC(=N)N)C(=O)N[C@@H](Cc1cnc[nH]1)C(=O)N[C@@H](Cc1ccc(O)cc1)C(=O)N[C@@H](CC(C)C)C(=O)N[C@@H](CC(N)=O)C(=O)N[C@@H](Cc1c[nH]c2ccccc12)C(=O)N[C@H](C(=O)N[C@H](C(=O)N[C@@H](CCCNC(=N)N)C(=O)N[C@@H](CCC(N)=O)C(=O)N[C@@H](CCCNC(=N)N)CN[C@@H](Cc1ccc(O)cc1)C(N)=O)[C@@H](C)O)C(C)C`, for which the values for the IC50 in experiment [1], in experiment [2] and in experiment [3] were 1.39 nM, 0.28 nM and 1510 nM, respectively.
In the case of `CC(=O)N[C@@H](C)C(=O)N[C@@H](CO)C(=O)N[C@@H](CC(C)C)C(=O)N[C@@H](CCCN=C(N)N)C(=O)N[C@@H](Cc1c[nH]cn1)C(=O)N[C@@H](Cc1ccc(O)cc1)C(=O)N[C@@H](CC(C)C)C(=O)N[C@@H](CC(N)=O)C(=O)N[C@@H](CC(C)C)C(=O)N[C@H](C(=O)N[C@H](C(=O)N[C@@H](CCCN=C(N)N)C(=O)N[C@@H](CCC(N)=O)C(=O)N[C@@H](CCCN=C(N)N)CN[C@@H](Cc1ccc(O)cc1)C(N)=O)[C@@H](C)O)C(C)C` (Ac-ASLRHYLNLVTRQ-{Argψ(CH2NH)TyrNH2}), the IC50 in experiment [1] is 1.32 nM; in experiment [2] it was 0.05 nM; in experiment [3], over 10000 nM.
As to `CC(=O)N[C@@H](C)C(=O)N[C@@H](CO)C(=O)N[C@@H](CC(C)C)C(=O)N[C@@H](CCCN=C(N)N)C(=O)N[C@@H](Cc1c[nH]cn1)C(=O)N[C@@H](Cc1ccc(O)cc1)C(=O)N[C@H](CN[C@@H](CC(N)=O)C(=O)N[C@@H](CC(C)C)C(=O)N[C@H](C(=O)N[C@H](C(=O)N[C@@H](CCCN=C(N)N)C(=O)N[C@@H](CCC(N)=O)C(=O)N[C@@H](CCCN=C(N)N)C(=O)N[C@@H](Cc1ccc(O)cc1)C(N)=O)[C@@H](C)O)C(C)C)CC(C)C`, the IC50 is 55 nM in experiment [1], 0.36 nM in experiment [2] and 1390 nM in experiment [3].
For `CC(=O)N[C@@H](C)C(=O)N[C@@H](CO)C(=O)N[C@@H](CC(C)C)C(=O)N[C@@H](CCCN=C(N)N)C(=O)N[C@@H](Cc1c[nH]cn1)C(=O)N[C@@H](Cc1cccc2ccccc12)C(=O)N[C@@H](CC(C)C)C(=O)N[C@@H](CC(N)=O)C(=O)N[C@@H](CC(C)C)C(=O)N[C@H](C(=O)N[C@H](C(=O)N[C@@H](CCCN=C(N)N)C(=O)N[C@@H](CCC(N)=O)C(=O)N[C@@H](CCCN=C(N)N)C(=O)N[C@@H](Cc1ccc(O)cc1)C(N)=O)[C@@H](C)O)C(C)C` (Ac-ASLRH[1Nal]LNLVTRQRY-NH2), in that order: 7.08 nM, 6.6 nM and 88.3 nM.
In the same order, the values of Ac-ASLRHYWNWVTRQRY-NH2 are 3.17 nM, 1.07 nM and 233 nM.
In the same order, the values of `CC(=O)N[C@@H](C)C(=O)N[C@@H](CO)C(=O)N[C@@H](CC(C)C)C(=O)N[C@@H](CCCNC(=N)N)C(=O)N[C@@H](Cc1cnc[nH]1)C(=O)N[C@@H](Cc1ccc(O)cc1)C(=O)N[C@@H](CC(C)C)C(=O)N[C@@H](CC(N)=O)C(=O)N[C@@H](CC(C)C)C(=O)N[C@H](C(=O)N[C@H](C(=O)N[C@@H](CCCNC(=N)N)C(=O)N[C@@H](CCC(N)=O)C(=O)N[C@@H](CCCNC(=N)N)C(=O)N[C@@H](Cc1ccc(O)cc1)C(N)=O)[C@@H](C)O)C(C)C` are 1.3 nM, 0.91 nM and over 1000 nM.
Ac-ASLRAFLNLVTRQRY-NH2: the IC50 in experiment [1] stood at 3.84 nM; in experiment [2], 5.3 nM; in experiment [3], 674 nM.
For `CC(=O)N[C@@H](C)C(=O)N[C@@H](CO)C(=O)N[C@H](CN[C@@H](CCCNC(=N)N)C(=O)N[C@@H](Cc1cnc[nH]1)C(=O)N[C@@H](Cc1ccc(O)cc1)C(=O)N[C@@H](CC(C)C)C(=O)N[C@@H](CC(N)=O)C(=O)N[C@@H](CC(C)C)C(=O)N[C@H](C(=O)N[C@H](C(=O)N[C@@H](CCCNC(=N)N)C(=O)N[C@@H](CCC(N)=O)C(=O)N[C@@H](CCCNC(=N)N)C(=O)N[C@@H](Cc1ccc(O)cc1)C(N)=O)[C@@H](C)O)C(C)C)CC(C)C` (H-[X3]([Ser-Ala-Ac])HYLNLVTRQRY-NH2), in that order: 59 nM, 2.76 nM and 735 nM.
Regarding Ac-FSLRHFLNLVTRQRY-NH2, the IC50 came to 5.61 nM in experiment [1] and 275 nM in experiment [3].
For `CC(=O)N[C@@H](C)C(=O)N[C@@H](CO)C(=O)N[C@@H](CC(C)C)C(=O)N[C@@H](CCCNC(=N)N)C(=O)N[C@@H](Cc1cnc[nH]1)C(=O)N1Cc2ccccc2C[C@H]1C(=O)N[C@@H](CC(C)C)C(=O)N[C@@H](CC(N)=O)C(=O)N[C@@H](CC(C)C)C(=O)N[C@H](C(=O)N[C@H](C(=O)N[C@@H](CCCNC(=N)N)C(=O)N[C@@H](CCC(N)=O)C(=O)N[C@@H](CCCNC(=N)N)C(=O)N[C@@H](Cc1ccc(O)cc1)C(N)=O)[C@@H](C)O)C(C)C` (Ac-ASLRH[Tic]LNLVTRQRY-NH2), the IC50 in experiment [1] stood at 186 nM; in experiment [2], 3.4 nM.

These data come from ChEMBL document CHEMBL1133640, “Structure-activity studies including a Psi(CH(2)-NH) scan of peptide YY (PYY) active site, PYY(22-36), for interaction with rat intestinal PYY receptors: development of analogues with potent in vivo activity in the intestine” (J Med Chem, 2000).
